Assay results: patent publication US5972953A, “Brain cell protective agent” (priority 1993, dated 1999)

System: cultured nerve cells (cerebral cortex)
Test: cells
Format: cell-based, Wistar rat
Settings: Rattus norvegicus, Cerebral cortex neuron; 10 mM glutamate, 24 hours at 37° C., LDH leakage; read-out: ED50 (the source's name)

CN(C(=O)/C=C/c1ccoc1)[C@@H]1CC[C@@]2(O)[C@H]3Cc4ccc(O)c5c4[C@@]2(CCN3CC2CC2)[C@H]1O5 (relative stereo) [Compound 43, 17-cyclopropylmethyl-3,14β-dihydroxy-4,5α-epoxy-6β-[N-methyl-trans-3-(3-furyl)acrylamido]morphinan]
EC50: 32600 nM

CN(C(=O)/C=C/c1ccco1)[C@@H]1CC[C@@]2(O)[C@H]3Cc4ccc(O)c5c4[C@@]2(CCN3CC2CC2)[C@H]1O5 (relative stereo) [Compound 53, 17-cyclopropylmethyl-3,14β-dihydroxy-4,5α-epoxy-6β-[N-methyl-trans-3-(2-furyl)acrylamido]morphinan]
EC50: 18200 nM

CN(C(=O)/C=C/c1ccsc1)[C@@H]1CC[C@@]2(O)[C@H]3Cc4ccc(O)c5c4[C@@]2(CCN3CC2CC2)[C@H]1O5 (relative stereo) [Compound 54, 17-cyclopropylmethyl-3,14β-dihydroxy-4,5α-epoxy-6β-[N-methyl-trans-3-(3-thienyl)acrylamido]morphinan]
EC50: 13500 nM

O=C(/C=C/c1ccoc1)S[C@@H]1CC[C@@]2(O)[C@H]3Cc4ccc(O)c5c4[C@@]2(CCN3CC2CC2)[C@H]1O5 (relative stereo) [Compound 119, 17-cyclopropylmethyl-4,5α-epoxy-3,14β-dihydroxy-6β-[trans-3-(3-furyl)acryloylthio]morphinan]
EC50: 1470 nM

CCN(Cc1ccccc1)[C@@H]1CC[C@@]2(O)[C@H]3Cc4ccc(O)c5c4[C@@]2(CCN3CC2CC2)[C@H]1O5 [Compound 5, 17-cyclopropylmethyl-3,14β-dihydroxy-4,5α-epoxy-6β-(N-ethylbenzylamino)morphinan]
EC50: 24600 nM

CC(C)N(Cc1ccccc1)[C@@H]1CC[C@@]2(O)[C@H]3Cc4ccc(O)c5c4[C@@]2(CCN3CC2CC2)[C@H]1O5 [Compound 6, 17-cyclopropylmethyl-3,14β-dihydroxy-4,5α-epoxy-6β-(N-isopropylbenzylamino)morphinan]
EC50: 1930 nM

CC(C)CN(Cc1ccccc1)[C@@H]1CC[C@@]2(O)[C@H]3Cc4ccc(O)c5c4[C@@]2(CCN3CC2CC2)[C@H]1O5 [Compound 7, 17-cyclopropylmethyl-3,14β-dihydroxy-4,5α-epoxy-6β-(N-isobutylbenzylamino)morphinan]
EC50: 320 nM

CCCCN(Cc1ccccc1)[C@@H]1CC[C@@]2(O)[C@H]3Cc4ccc(O)c5c4[C@@]2(CCN3CC2CC2)[C@H]1O5 [Compound 8, 17-cyclopropylmethyl-3,14β-dihydroxy-4,5α-epoxy-6β-(N-butylbenzylamino)morphinan]
EC50: 1200 nM

CCCCCN(Cc1ccccc1)[C@@H]1CC[C@@]2(O)[C@H]3Cc4ccc(O)c5c4[C@@]2(CCN3CC2CC2)[C@H]1O5 [Compound 9, 17-cyclopropylmethyl-3,14β-dihydroxy-4,5α-epoxy-6β-(N-pentylbenzylamino)morphinan]
EC50: 290 nM

Oc1ccc2c3c1O[C@H]1[C@H](N(CCc4ccccc4)Cc4ccccc4)CC[C@@]4(O)[C@@H](C2)N(CC2CC2)CC[C@]314 [Compound 10, 17-cyclopropylmethyl-3,14β-dihydroxy-4,5α-epoxy-6β-(N-2-phenethylbenzylamino)morphinan]
EC50: 280 nM

Oc1ccc2c3c1O[C@H]1[C@H](N(Cc4ccccc4)CC4CCCCC4)CC[C@@]4(O)[C@@H](C2)N(CC2CC2)CC[C@]314 [Compound 11, 17-cyclopropylmethyl-3,14β-dihydroxy-4,5α-epoxy-6β-[N-(cyclohexylmethyl)benzylamino]morphinan]
EC50: 170 nM

Oc1ccc2c3c1O[C@H]1[C@H](N(CCCc4ccccc4)Cc4ccccc4)CC[C@@]4(O)[C@@H](C2)N(CC2CC2)CC[C@]314 [Compound 12, 17-cyclopropylmethyl-3,14β-dihydroxy-4,5α-epoxy-6β-(N-3-phenylpropylbenzylamino) morphinan]
EC50: 130 nM

Oc1ccc2c3c1O[C@H]1[C@H](N(CCCCc4ccccc4)Cc4ccccc4)CC[C@@]4(O)[C@@H](C2)N(CC2CC2)CC[C@]314 [Compound 13, 17-cyclopropylmethyl-3,14β-dihydroxy-4,5α-epoxy-6β-(N-4-phenylbutylbenzylamino) morphinan]
EC50: 210 nM
